According to patent US6693108B2, “Inhibitors of c-JUN N terminal kinases (JNK) and other protein kinases” (Vertex Pharmaceuticals Incorporated, priority 1999, dated 2004):

Molecular target: T1, activated JNK3 (Homo sapiens, UniProt P53779)
T1 construct: One such construct encodes amino acid residues Ser40-Glu402 of JNK3α1 and is preceded by Met and Gly residues; Met-Gly (initiation Met plus Gly added to create the NcoI site) (N); made in house; host or cells: E. coli BL21 (DE3)
Assay: JNK3 inhibition, spectrophotometric coupled-enzyme assay
Type: biochemical
Conditions: read-out: Activity in the JNK3 Inhibition Assay (Ki rating)
From the text: A BLAST search of the EST database using the published JNK3α1 cDNA as a query identified an EST clone (#632588) that contained the entire coding sequence for human JNK3α1. Polymerase chain reactions (PCR) using pfu polymerase (Strategene) were used to introduce restriction sites into the cDNA for cloning into the pET-15B expression vector at the NcoI and BamHI sites. The protein was expressed in E. coli. […] This truncation corresponds to Ser 2 of JNK1 and JNK2 proteins, and is preceded by a methionine (initiation) and a glycine residue. The glycine residue was added in order to introduce an NcoI site for cloning into the expression vector. In addition, systematic C-terminal truncations were performed by PCR to identify a construct that give rise to diffraction-quality crystals.
5 mg of JNK3 was diluted to 0.5 mg/ml in 50 mM HEPES buffer, pH 7.5, containing 100 mM NaCl, 5 mM DTT, 20 mM MgCl2 and 1 mM ATP. GST-MKK7(DD) was added at a molar ratio of 1:2.5 GST-MKK7:JNK3. After incubation for 30 minutes at 25° C., the reaction mixture was concentrated 5-fold by ultrafiltration in a Centriprep-30 (Amicon, Beverly, Mass.), diluted to 10 ml and an additional 1 mM ATP added. This procedure was repeated three times to remove ADP and replenish ATP. The final addition of ATP was 5 mM and the mixture incubated overnight at 4° C.
The activated JNK3/GST-MKK7(DD) reaction mixture was exchanged into 50 mM HEPES buffer, pH 7.5, containing 5 mM DTT and 5% glycerol (w/v) by dialysis or ultrafiltration. The reaction mixture was adjusted to 1.1 M potassium phosphate, pH 7.5, and purified by hydrophobic interaction chromatography (at 25° C.) using a Rainin Hydropore column. […] Activated JNK3 (i.e. doubly phosphorylated JNK3) was stored at −70° C. at 0.25-1 mg/ml.
Compounds were assayed for the inhibition of JNK3 by a spectrophotometric coupled-enzyme assay. In this assay, a fixed concentration of activated JNK3 (10 nM) was incubated with various concentrations of a potential inhibitor dissolved in DMSO for 10 minutes at 30° C. in a buffer containing 0.1 M HEPES buffer, pH 7.5, containing 10 mM MgCl2, 2.5 mM phosphoenolpyruvate, 200 μM NADH, 150 μg/mL pyruvate kinase, 50 μg/mL lactate dehydrogenase, and 200 μM EGF receptor peptide. […] The reaction was initiated by the addition of 10 μM ATP and the assay plate is inserted into the spectrophotometer's assay plate compartment that was maintained at 30° C. The decrease of absorbance at 340 nm was monitored as a function of time. The rate data as a function of inhibitor concentration was fitted to competitive inhibition kinetic model to determine the Ki.

T1 sequence (P53779 40-402): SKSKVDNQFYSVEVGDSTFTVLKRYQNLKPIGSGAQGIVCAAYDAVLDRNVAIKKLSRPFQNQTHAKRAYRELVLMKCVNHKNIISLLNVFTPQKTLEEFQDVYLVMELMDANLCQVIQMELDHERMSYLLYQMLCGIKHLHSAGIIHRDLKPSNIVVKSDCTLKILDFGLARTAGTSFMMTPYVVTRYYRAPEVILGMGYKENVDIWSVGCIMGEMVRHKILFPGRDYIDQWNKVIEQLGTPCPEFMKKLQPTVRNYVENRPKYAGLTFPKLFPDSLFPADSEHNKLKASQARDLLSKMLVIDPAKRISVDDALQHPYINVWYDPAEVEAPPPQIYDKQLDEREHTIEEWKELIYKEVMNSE

Ki [nM]	SMILES
100 to 1000	Cc1onc(-c2ccccc2F)c1-c1ccnc(NC(=O)c2cccc(Cl)c2)n1 [IIIA-54]
100 to 1000	COc1cccc(C(=O)Nc2nccc(-c3c(-c4ccccc4F)noc3C)n2)c1 [IIIA-55]
100 to 1000	COc1cc(OC)cc(C(=O)Nc2nccc(-c3c(-c4ccccc4F)noc3C)n2)c1 [IIIA-56]
100 to 1000	Cc1cccc(C(=O)Nc2nccc(-c3c(-c4ccccc4F)noc3C)n2)c1 [IIIA-57]
100 to 1000	COc1ccc(C(=O)Nc2nccc(-c3c(-c4ccccc4F)noc3C)n2)cc1 [IIIA-58]
100 to 1000	Cc1onc(-c2ccccc2F)c1-c1ccnc(NC(=O)c2ccc(F)cc2)n1 [IIIA-59]
100 to 1000	Cc1ccc(C(=O)Nc2nccc(-c3c(-c4ccccc4F)noc3C)n2)cc1 [IIIA-60]
100 to 1000	Cc1onc(-c2ccccc2F)c1-c1ccnc(NC(=O)c2cccc(C#N)c2)n1 [IIIA-61]
100 to 1000	COc1cc(C(=O)Nc2nccc(-c3c(-c4ccccc4F)noc3C)n2)cc(OC)c1OC [IIIA-62]
100 to 1000	Cc1onc(-c2ccccc2F)c1-c1ccnc(NC(=O)c2ccc3ccccc3c2)n1 [IIIA-63]
100 to 1000	Cc1onc(-c2c(F)cccc2F)c1-c1ccnc(NC(=O)c2cccc(Cl)c2)n1 [IIIA-64]
100 to 1000	COc1cccc(C(=O)Nc2nccc(-c3c(-c4c(F)cccc4F)noc3C)n2)c1 [IIIA-65]
100 to 1000	COc1cc(OC)cc(C(=O)Nc2nccc(-c3c(-c4c(F)cccc4F)noc3C)n2)c1 [IIIA-66]
100 to 1000	Cc1cccc(C(=O)Nc2nccc(-c3c(-c4c(F)cccc4F)noc3C)n2)c1 [IIIA-67]
100 to 1000	COc1ccc(C(=O)Nc2nccc(-c3c(-c4c(F)cccc4F)noc3C)n2)cc1 [IIIA-68]
100 to 1000	Cc1onc(-c2c(F)cccc2F)c1-c1ccnc(NC(=O)c2ccc(F)cc2)n1 [IIIA-69]
100 to 1000	Cc1ccc(C(=O)Nc2nccc(-c3c(-c4c(F)cccc4F)noc3C)n2)cc1 [IIIA-70]
100 to 1000	Cc1onc(-c2c(F)cccc2F)c1-c1ccnc(NC(=O)c2cccc(C#N)c2)n1 [IIIA-71]

Ki [nM]	SMILES
100 to 1000	COc1cc(C(=O)Nc2nccc(-c3c(-c4c(F)cccc4F)noc3C)n2)cc(OC)c1OC [IIIA-72]
100 to 1000	Cc1onc(-c2c(F)cccc2F)c1-c1ccnc(NC(=O)c2ccc3ccccc3c2)n1 [IIIA-73]
< 100	Cc1onc(-c2ccccc2)c1-c1ccnc(NC(=O)c2cccc([N+](=O)[O-])c2)n1 [IIIA-74]
100 to 1000	CC(=O)Nc1cccc(C(=O)Nc2nccc(-c3c(-c4ccccc4)noc3C)n2)c1 [IIIA-75]
100 to 1000	CC(=O)Nc1nccc(-c2c(-c3ccccc3)noc2C)n1 [XA-1]
> 1000	CC(=O)Nc1nccc(-c2c(-c3ccc(F)cc3)noc2C)n1 [XA-2]
100 to 1000	Cc1onc(-c2ccccc2)c1-c1ccnc(NC(=O)C2CCCC2)n1 [XA-3]
100 to 1000	Cc1onc(-c2ccccc2)c1-c1ccnc(NC(=O)CC(C)C)n1 [XA-4]
100 to 1000	CCCC(=O)Nc1nccc(-c2c(-c3ccccc3)noc2C)n1 [XA-5]
< 100	OCc1onc(-c2ccc(F)cc2)c1-c1ccnc(NC2CCCCC2)n1 [XIA-45, [4-(2-Cyclohexylamino-pyrimidin-4-yl)-3-(4-fluoro-phenyl)-isoxazol-5-yl]methanol]
< 100	OCc1onc(-c2ccc(F)cc2)c1-c1ccnc(NCCc2ccccn2)n1 [XIA-46]
< 100	COCc1onc(-c2ccc(F)cc2)c1-c1ccnc(NC2CCCCC2)n1 [XIA-47]
< 100	CCOCc1onc(-c2ccc(F)cc2)c1-c1ccnc(NC2CCCCC2)n1 [XIA-48]
< 100	COCCOCc1onc(-c2ccc(F)cc2)c1-c1ccnc(NC2CCCCC2)n1 [XIA-49]
< 100	Fc1ccc(-c2noc(COC3CCOC3)c2-c2ccnc(NC3CCCCC3)n2)cc1 (stereo not drawn) [XIA-50]
< 100	O=S1(=O)CCC(OCc2onc(-c3ccc(F)cc3)c2-c2ccnc(NC3CCCCC3)n2)C1 (stereo not drawn) [XIA-51]
< 100	Fc1ccc(-c2noc(COCc3ccccc3)c2-c2ccnc(NC3CCCCC3)n2)cc1 [XIA-52]
< 100	Fc1ccc(-c2noc(COCc3ccccc3)c2-c2ccnc(NCCc3ccccn3)n2)cc1 [XIA-53]
